Results taken from the NIST ThermoML archive (doi:10.1021/je600519p).
± gives the expanded uncertainty stated by the source.

Assay: xn = mol fraction of the nth substance listed
Details: 101 kPa, Liquid

CC(=O)c1ccccc1 [acetophenone] + CCOC(=O)OCC
Details | mass density [kg/m3] | speed of sound [m/s] | viscosity [mPa·s]
293.15 K, x2 = 0.0511 | 1025.19 ± 0.44 | 1443 ± 11 | 1.754 ± 0.082
293.15 K, x2 = 0.1014 | 1023.01 ± 0.43 | 1405 ± 11 | 1.688 ± 0.079
293.15 K, x2 = 0.1501 | 1020.69 ± 0.41 | 1377 ± 11 | 1.625 ± 0.076
293.15 K, x2 = 0.1996 | 1018.39 ± 0.4 | 1347 ± 11 | 1.564 ± 0.074
293.15 K, x2 = 0.2465 | 1016.19 ± 0.38 | 1322 ± 11 | 1.507 ± 0.071
293.15 K, x2 = 0.3041 | 1013.29 ± 0.36 | 1297 ± 11 | 1.441 ± 0.068
293.15 K, x2 = 0.3467 | 1011.15 ± 0.35 | 1280 ± 10 | 1.391 ± 0.066
293.15 K, x2 = 0.4001 | 1008.46 ± 0.34 | 1265 ± 10 | 1.329 ± 0.064
293.15 K, x2 = 0.4507 | 1005.89 ± 0.32 | 1251 ± 10 | 1.276 ± 0.061
293.15 K, x2 = 0.4888 | 1003.9 ± 0.31 | 1242 ± 10 | 1.238 ± 0.06
293.15 K, x2 = 0.5506 | 1000.67 ± 0.29 | 1231 ± 10 | 1.174 ± 0.057
293.15 K, x2 = 0.6038 | 997.77 ± 0.29 | 1222 ± 10 | 1.122 ± 0.055
293.15 K, x2 = 0.6498 | 995.25 ± 0.29 | 1218 ± 10 | 1.079 ± 0.053
293.15 K, x2 = 0.7104 | 991.92 ± 0.29 | 1215 ± 10 | 1.025 ± 0.051
293.15 K, x2 = 0.7513 | 989.53 ± 0.29 | 1213 ± 10 | 0.989 ± 0.049
293.15 K, x2 = 0.8078 | 986.29 ± 0.29 | 1210 ± 10 | 0.941 ± 0.047
293.15 K, x2 = 0.8522 | 983.66 ± 0.29 | 1208 ± 10 | 0.906 ± 0.045
293.15 K, x2 = 0.8993 | 980.83 ± 0.29 | 1207 ± 10 | 0.869 ± 0.044
293.15 K, x2 = 0.9488 | 977.82 ± 0.29 | 1206 ± 10 | 0.833 ± 0.042
303.15 K, x2 = 0.0511 | 1016.4 ± 0.42 | 1408 ± 11 | 1.455 ± 0.069
303.15 K, x2 = 0.1014 | 1014.09 ± 0.4 | 1369 ± 11 | 1.402 ± 0.067
303.15 K, x2 = 0.1501 | 1011.77 ± 0.39 | 1339 ± 11 | 1.352 ± 0.065
303.15 K, x2 = 0.1996 | 1009.35 ± 0.37 | 1312 ± 11 | 1.302 ± 0.063
303.15 K, x2 = 0.2465 | 1007.04 ± 0.36 | 1290 ± 11 | 1.257 ± 0.061
303.15 K, x2 = 0.3041 | 1004.02 ± 0.34 | 1265 ± 10 | 1.203 ± 0.058
303.15 K, x2 = 0.3467 | 1001.78 ± 0.33 | 1249 ± 10 | 1.165 ± 0.057
303.15 K, x2 = 0.4001 | 998.99 ± 0.32 | 1232 ± 10 | 1.118 ± 0.055
303.15 K, x2 = 0.4507 | 996.27 ± 0.31 | 1217 ± 10 | 1.075 ± 0.053
303.15 K, x2 = 0.4888 | 994.18 ± 0.31 | 1208 ± 10 | 1.042 ± 0.051
303.15 K, x2 = 0.5506 | 990.73 ± 0.31 | 1198 ± 10 | 0.993 ± 0.049
303.15 K, x2 = 0.6038 | 987.73 ± 0.31 | 1194 ± 10 | 0.952 ± 0.047
303.15 K, x2 = 0.6498 | 985.06 ± 0.31 | 1193 ± 10 | 0.918 ± 0.046
303.15 K, x2 = 0.7104 | 981.54 ± 0.31 | 1192 ± 10 | 0.875 ± 0.044
303.15 K, x2 = 0.7513 | 979.05 ± 0.31 | 1191 ± 10 | 0.848 ± 0.043
303.15 K, x2 = 0.8078 | 975.68 ± 0.31 | 1190 ± 10 | 0.811 ± 0.041
303.15 K, x2 = 0.8522 | 972.91 ± 0.31 | 1189 ± 10 | 0.784 ± 0.04
303.15 K, x2 = 0.8993 | 969.91 ± 0.31 | 1188 ± 10 | 0.755 ± 0.039
303.15 K, x2 = 0.9488 | 966.78 ± 0.32 | 1187 ± 10 | 0.727 ± 0.038
313.15 K, x2 = 0.0511 | 1007.58 ± 0.39 | 1365 ± 11 | 1.232 ± 0.06
313.15 K, x2 = 0.1014 | 1005.19 ± 0.38 | 1326 ± 11 | 1.188 ± 0.058
313.15 K, x2 = 0.1501 | 1002.73 ± 0.36 | 1292 ± 11 | 1.148 ± 0.056
313.15 K, x2 = 0.1996 | 1000.2 ± 0.35 | 1263 ± 10 | 1.11 ± 0.054
313.15 K, x2 = 0.2465 | 997.78 ± 0.34 | 1238 ± 10 | 1.073 ± 0.053
313.15 K, x2 = 0.3041 | 994.63 ± 0.34 | 1212 ± 10 | 1.03 ± 0.051
313.15 K, x2 = 0.3467 | 992.31 ± 0.34 | 1196 ± 10 | 0.998 ± 0.049
313.15 K, x2 = 0.4001 | 989.35 ± 0.34 | 1180 ± 10 | 0.961 ± 0.048
313.15 K, x2 = 0.4507 | 986.55 ± 0.33 | 1168 ± 10 | 0.925 ± 0.046
313.15 K, x2 = 0.4888 | 984.35 ± 0.33 | 1160 ± 10 | 0.9 ± 0.045
313.15 K, x2 = 0.5506 | 980.71 ± 0.33 | 1153 ± 10 | 0.86 ± 0.043
313.15 K, x2 = 0.6038 | 977.48 ± 0.33 | 1152 ± 10 | 0.827 ± 0.042
313.15 K, x2 = 0.6498 | 974.69 ± 0.33 | 1151 ± 10 | 0.799 ± 0.041
313.15 K, x2 = 0.7104 | 971.04 ± 0.33 | 1150 ± 10 | 0.765 ± 0.039
313.15 K, x2 = 0.7513 | 968.47 ± 0.33 | 1149 ± 10 | 0.742 ± 0.038
313.15 K, x2 = 0.8078 | 964.89 ± 0.33 | 1148 ± 10 | 0.711 ± 0.037
313.15 K, x2 = 0.8522 | 961.99 ± 0.34 | 1147 ± 10 | 0.688 ± 0.036
313.15 K, x2 = 0.8993 | 958.99 ± 0.34 | 1146 ± 10 | 0.665 ± 0.035
313.15 K, x2 = 0.9488 | 955.63 ± 0.34 | 1145 ± 10 | 0.641 ± 0.034
323.15 K, x2 = 0.0511 | 998.79 ± 0.38 | 1305 ± 11 | 1.057 ± 0.052
323.15 K, x2 = 0.1014 | 996.27 ± 0.37 | 1265 ± 10 | 1.023 ± 0.051
323.15 K, x2 = 0.1501 | 993.68 ± 0.37 | 1234 ± 10 | 0.991 ± 0.049
323.15 K, x2 = 0.1996 | 991.08 ± 0.36 | 1208 ± 10 | 0.959 ± 0.048
323.15 K, x2 = 0.2465 | 988.56 ± 0.36 | 1185 ± 10 | 0.929 ± 0.046
323.15 K, x2 = 0.3041 | 985.24 ± 0.36 | 1164 ± 10 | 0.893 ± 0.045
323.15 K, x2 = 0.3467 | 982.8 ± 0.36 | 1151 ± 10 | 0.868 ± 0.044
323.15 K, x2 = 0.4001 | 979.74 ± 0.36 | 1137 ± 10 | 0.837 ± 0.042
323.15 K, x2 = 0.4507 | 976.77 ± 0.35 | 1126 ± 10 | 0.809 ± 0.041
323.15 K, x2 = 0.4888 | 974.49 ± 0.35 | 1121 ± 9 | 0.787 ± 0.04
323.15 K, x2 = 0.5506 | 970.76 ± 0.35 | 1118 ± 9 | 0.755 ± 0.039
323.15 K, x2 = 0.6038 | 967.47 ± 0.35 | 1117 ± 9 | 0.727 ± 0.038
323.15 K, x2 = 0.6498 | 964.54 ± 0.35 | 1116 ± 9 | 0.704 ± 0.037
323.15 K, x2 = 0.7104 | 960.63 ± 0.36 | 1115 ± 9 | 0.676 ± 0.035
323.15 K, x2 = 0.7513 | 957.86 ± 0.36 | 1114 ± 9 | 0.656 ± 0.035
323.15 K, x2 = 0.8078 | 954.13 ± 0.36 | 1113 ± 9 | 0.631 ± 0.034
323.15 K, x2 = 0.8522 | 951.07 ± 0.36 | 1112 ± 9 | 0.612 ± 0.033
323.15 K, x2 = 0.8993 | 947.76 ± 0.36 | 1111 ± 9 | 0.592 ± 0.032
323.15 K, x2 = 0.9488 | 944.32 ± 0.37 | 1110 ± 9 | 0.573 ± 0.031
